This passage reports IC50 and inhibition results from ChEMBL document CHEMBL2406986, “Correlation of hydrogen-bonding propensity and anticancer profile of tetrazole-tethered combretastatin analogues” (Bioorg Med Chem Lett, 2013).

Each structure is given as a SMILES string. A value given as a limit tells only on which side of the number the result lay.

What is called IC50 is the concentration that gives 50% inhibition. The inhibition is how much of the control response was suppressed.

Assay [1] in a line: Cytotoxicity against human H1299 cells assessed as growth inhibition after 48 hrs by MTT assay. Format: functional, cell-based. The conditions noted are these: NCI-H1299, 48 h.
The test system of another assay is A549. Briefly: Cytotoxicity against human A549 cells assessed as growth inhibition after 48 hrs by MTT assay. Format: functional, cell-based. The conditions noted are these: A549, 48 h. On the technique in general: Formazan colour is commonly taken as a measure of viable cells.
The next assay relates to MCF7. Briefly: Cytotoxicity against human MCF7 cells assessed as growth inhibition after 48 hrs by MTT assay. The conditions noted are these: MCF7, 48 h. Format: functional, cell-based.
Assay [2] is described as follows: Inhibition of bovine brain tubulin assembly preincubated for 15 mins followed by GTP addition measured for 20 mins by spectrophotometric analysis. Further details: species or system Bos taurus.
A further assay deals with HeLa. The assay can be described thus: Cytotoxicity against human HeLa cells assessed as growth inhibition after 48 hrs by MTT assay. Format: functional, cell-based.
For a further assay, the species on record is Bos taurus. The assay can be described thus: Displacement of [3H]colchicine from bovine brain tubulin at 5 uM after 10 mins relative to control. For orientation: Displacement assays read how much labelled ligand stays bound in the presence of the test substance.

As for `COc1ccc(/C=C\c2cc(OC)c(OC)c(OC)c2)cc1O` [COMBRETASTATIN A4], the IC50 in assay [1] turned out to be 0.0062 µM; in the assay on A549 it was 0.28 µM; in the assay with MCF7, 0.098 µM.

As for `COc1ccc(-c2nnnn2-c2cc(OC)c(OC)c(OC)c2)c(O)c1O`, the IC50 in assay [1] turned out to be 8.8 µM; in assay [2] it was 2.5 µM; in the assay with A549 it was 6.7 µM; with MCF7 it was 6.6 µM; in the assay with HeLa, 0.95 µM. The inhibition in the assay listed under Bos taurus amounted to 62%.

With `COc1ccc(-c2nnnn2-c2cc(OC)c(OC)c(OC)c2)c(O)c1N`, the IC50 in assay [1] turned out to be 4 µM; in assay [2] it was 2.2 µM; in the assay with A549, 0.52 µM; with MCF7 it was 2.9 µM; in the assay on HeLa, 0.9 µM. For the same compound, the inhibition in the assay listed under Bos taurus is 69%.

For the compound `COc1ccc(-c2nnnn2-c2cc(OC)c(OC)c(OC)c2)c(O)c1`, the IC50 in assay [1] stood at 7.9 µM; in assay [2], 2.7 µM; in the assay with A549, 6.4 µM; in the assay with MCF7, 8.2 µM; in the assay with HeLa it was 2.4 µM. In the assay filed under Bos taurus, the inhibition was 52%.

Take `COc1ccc(-c2nnnn2-c2cc(OC)c(OC)c(OC)c2O)cc1`: the concentration for half-maximal inhibition (IC50) in assay [1] is 40 µM; in assay [2], above 20 µM; with A549, above 100 µM; with MCF7, 72 µM; in the assay on HeLa it was 92 µM.

With `COc1ccc(-c2nnnn2-c2cc(OC)c(OC)c(OC)c2O)c(O)c1`, the IC50 was 49 µM in assay [1]; above 20 µM in assay [2]; 50 µM with A549; 46 µM with MCF7; 45 µM in the assay on HeLa.
